Reference: article PMC12386811, “Novel Carbazole–Thiazole Conjugates: Synthesis and Biophysical Characterization” (International Journal of Molecular Sciences, 2025)

How the values were obtained:
[1] = target: mushroom tyrosinase (Agaricus bisporus, UniProt C7FF04); assay: Kinetic analysis of the inhibition of tyrosinase (Lineweaver–Burk plots); type: biochemical; details: inhibitor 0.05 and 0.1 mM, L-DOPA 0.1–0.25 mM
Experimental: Based on the Lineweaver–Burk double reciprocal plots, the inhibition mode for the three investigated compounds was established as mixed-type inhibition, i.e., the type of enzyme inhibition in which the inhibitor may bind to the enzyme regardless of whether or not the enzyme has already bound the substrate. […].
A series of experiments were performed to determine the inhibition kinetics of tested carbazoles by following the already reported method. The inhibitor concentrations for tested carbazoles were 0.05 and 0.1 mM. Substrate L-DOPA concentration was between 0.1 and 0.25 mM in all kinetic studies. Maximal initial velocity was determined from the initial linear portion of absorbance up to ten minutes after addition of enzyme. The inhibition type of the enzyme, Michaelis constant (Km) and maximal velicity (Vmax), were determined by Lineweaver–Burk plots of inverse of velocities (1/V) versus inverse of substrate concentration 1/[L-DOPA] mM^−1.

[2] = Thermogravimetric analysis (thermal stability); type: physicochemical; details: TGA, 15 °C/min under nitrogen
Experimental: Thermogravimetric analysis (TGA) allowed obtaining of thermal stability results for the presented compounds (K1–K3). For all derivatives, the temperature of 5% (T5) and 10% (T10) mass loss as well as the temperature of complete decomposition (Tmax) were determined. Referring to the T5 for K1–K3, we can see that it is in the range of 222 °C to 244 °C. Such high values indicate the high durability of these compounds. Moreover, the functional group in the substituent has a negligible effect on thermal stability. The best thermal properties are those of K3 compound, containing the 4-nitrophenyl group. In the case of replacing this group with benzonitrile (K2), we observe a slight decrease in T5 (by 13 °C), T10 (by 19 °C), and only one stage of Tmax degradation. On the other hand, compound K1 has the lowest T5 (222 °C). It is most likely due to the aliphatic nature of the substituent. Comparing the discussed derivatives (K1–K3) to their analogs described in the literature, we can see a significant similarity in thermal properties, despite different functional groups in the substituents.
Thermogravimetric analysis was performed on Perkin Elmer Thermogravimetric Analyzer Pyris 1 TGA at a heating rate of 15 °C/min under nitrogen. The electronic spectra were measured on a ThermoScientific Evolution 220 UV/Vis spectrometer. Photoluminescence emission spectra were acquired using Hitachi Fluorescence Spectrophotometer F-7100 [19].

[3] = Dissolution in solvents for absorption/emission studies; type: physicochemical; details: non-polar toluene
Experimental: Absorption and emission studies were carried out for investigated compounds K1–K3 using solvents of different polarities. The presented molecules differ in the substituent in thiazole ring. To check the influence of the substituent in the discussed molecules, the tests were carried out on solutions with a concentration of 2.5 × 10^−5 mol/L. In the first step, absorption maxima (λabs) were determined. The measured data are shown in Table 3, Figure 3, Figures S1 and S2.
Each of the derivatives has at least two bands registered in the absorption spectra. The main bands between 320 and 370 nm can be attributed to the π→π* transition. The next one is the band […] 300 nm. In the case of the presented molecules, the solvatochromic effect associated with the polarity of the solvent is not observed in the absorption spectra. The same behavior is shown by the analogs described in the literature. In the next step, the emission maxima were determined. For the K3 molecule, spectra were recorded only in chloroform, ethanol, and DMSO. […] For the rest, λem was successfully determined in several solvents. By analyzing the fluorescence spectra, the influence of the polarity of the solvent on the obtained results can be observed. […] Moreover, the Stokes shift increases from non-polar to polar solvents (K3 30 nm, K1 69 nm, K2 70 nm). […]

Chain of mushroom tyrosinase (C7FF04 1-392): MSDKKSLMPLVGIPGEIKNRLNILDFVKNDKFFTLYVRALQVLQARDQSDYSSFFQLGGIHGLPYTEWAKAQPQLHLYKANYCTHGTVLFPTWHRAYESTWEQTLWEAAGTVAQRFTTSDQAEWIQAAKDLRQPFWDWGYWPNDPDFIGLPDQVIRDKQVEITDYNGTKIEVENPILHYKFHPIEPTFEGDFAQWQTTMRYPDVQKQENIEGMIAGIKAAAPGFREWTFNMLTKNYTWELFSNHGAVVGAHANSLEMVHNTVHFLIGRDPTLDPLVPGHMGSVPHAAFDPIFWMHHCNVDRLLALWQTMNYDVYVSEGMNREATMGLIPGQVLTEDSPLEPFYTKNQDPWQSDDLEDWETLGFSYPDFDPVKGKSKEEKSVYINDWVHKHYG

Inhibitory Mechanism [1] | Vmax [1] [mM/min] | T5 (temperature at 5% weight loss) [2] [°C] | T10 (temperature at 10% weight loss) [2] [°C] | solubility in toluene [3] | SMILES
Mixed | 0.2608 | 222 | 279 |  | C(=N\Nc1nc(C23CC4CC(CC(C4)C2)C3)cs1)/c1ccc(-n2c3ccccc3c3ccccc32)cc1 [K1, (E)-2-(2-(4-(9H-carbazol-9-yl)benzylidene)hydrazinyl)-4-(1-adamantyl)thiazole]
Mixed | 0.4718 | 244 | 271 | did not dissolve | O=[N+]([O-])c1ccc(-c2csc(N/N=C/c3ccc(-n4c5ccccc5c5ccccc54)cc3)n2)cc1 [K3, (E)-2-(2-(4-(9H-carbazol-9-yl)benzylidene)hydrazinyl)-4-(4-nitrophenyl)thiazole]
Mixed | 0.4078 | 231 | 252 |  | N#Cc1ccc(-c2csc(N/N=C/c3ccc(-n4c5ccccc5c5ccccc54)cc3)n2)cc1 [K2, (E)-4-(2-(2-(4-(9H-carbazol-9-yl)benzylidene)hydrazinyl)thiazol-4-yl)benzonitrile]
